This is an account of results in patent publication US20100136573A1, “DIAGNOSING NEURODEGENERATIVE DISEASES” (priority 2007, published 2010).

Where a SMILES comes first, the peptide text is derived from it. The star is where a group is joined. Cbz = O=C(OCc1ccccc1)*; OtBu = CC(C)(C)O*; CH2F = FC*

One series deals with HEK293 cells. The series can be described thus: Inclusion formation and distribution of GFP-TDP-43 constructs, confocal microscopy. In kind it is cell-based. As to conditions: for cellular distribution: HEK293, confocal fluorescence microscopy. The method, then: HEK293 cells, grown on glass coverslips, were transfected with 0.3 μg of expression vector (GFP, GFP-TDP-43, GFP-TDP-43-caspase-resistant, GFP-TDP-35, GFP-TDP-25, or GFP-TDP-ΔNR1) by using Lipofectamine 2000 (Invitrogen) according to the manufacturer's instructions then subjected to immunofluorescence analysis 48 hours later. To determine if the cytoplasmic inclusion were insoluble, some cells were treated with 0.2% Triton X-100 prior to fixation, in order to remove soluble protein. To determine if the formation of inclusion was aggresome-dependent, some cells were treated with 1 μM nocodazole (Sigma) for 24 hours after 6 hours of transfection. Finally, to examine if inclusions were ubiquitinated, cells were cotransfected with 0.3 μg of a TDP-43 construct and 0.5 μg HA-ubiquitin, then subjected to immunofluorescence analysis 72 hours later.
(§1) The cultured HEK293 and differentiated M17 cells were fixed with 4% paraformaldehyde in phosphate-buffered saline (PBS) at 4° C. for 15 minutes and permeabilized with PBS-0.5% Triton X-100 for 10 minutes. After blocking with 5% BSA for 1 hour at 37° C., the cells were incubated overnight at 4° C. with mouse monoclonal HA antibody (1:1000, Roche Applied Science), rabbit polyclonal activated caspase-3 antibody (1:250, Cell Signaling), rabbit polyclonal anti-pTDP-43 (which detects phosphorylated S409/S410; 1:1000, COSMO BIO CO., LTD), mouse monoclonal Flag antibody (1:1000, Sigma), rabbit polyclonal M2085 (1:1000), or rabbit polyclonal M2079 (1:1000). After washing, cells were incubated with the Alexa 568-conjugated goat anti-mouse IgG secondary antibody (1:1000, Molecular Probes) or anti-rabbit IgG secondary antibody (1:500, Molecular Probes) at 37° C. for 2 hours. Finally, Hoechst 33258 (1 μg/mL, Invitrogen) was used to stain the nuclei. Images were obtained on a Zeiss LSM 510 META confocal microscope.

For series [1], the system named is TDP-43 exon 9 skipping activity. In words: CFTR mini-gene splicing assay. In kind it is cell-based. The settings on record: for CFTR exon 9 exclusion (endogenous TDP-43 background): HeLa cells cotransfected with CFTR minigene, RT-PCR, compared to GFP; for exon skipping activity in cells overexpressing Flag-TDP-43: cotransfected with CFTR mini-gene and Flag-TDP-43. The method, then: The CFTR mini-gene splicing assay was conducted as described elsewhere (Pagani et al., J. Biol. Chem., 275(28):21041-21047 (2000) and Ayala et al., FEBS Lett., 580(5):1339-1344 (2006)). In brief, Hela cells were co-transfected with 1 μg of minigene construct and 1 μg of GFP-fusion protein expression vector. […] Then, 2 μg of total RNA was used to synthesize cDNA using the SuperScript III First-Strand Synthesis System (Invitrogen). For the PCR, 2 μL of cDNA was used in a 20 μL of reaction according to the manufacturer's protocol for Taq PCR Core Kit (Qiagen). The amplification conditions consisted of an initial denaturation step at 94° C. for 3 minutes, followed by 30 cycles of 94° C. for 30 seconds, 62° C. for 60 seconds, and 72° C. for 90 seconds.

A further series concerns the target T1, hnRNPA2 (Homo sapiens, UniProt P22626).
T1 construct: expressed in transfected cells; host or cells: HeLa cells
In words: Co-immunoprecipitation with Flag-tagged hnRNPA2. In kind it is binding. The settings on record: HeLa cells, probing for GFP. The method, then: (§2) For co-immunoprecipitation studies, HeLa cells were transfected with 1 or 2 μg of each plasmid. Cells were harvested 48 hours later using Co-IP buffer (50 mM Tris-HCl, pH 7.4, 1 M NaCl, 1% Triton X-100, 5 mM EDTA) containing PMSF as well as protease and phosphatase inhibitors. The lysates were sonicated and centrifuged at 16,000 g for 20 minutes. The protein concentration of supernatants was determined by BCA assay (Thermo Scientific). Supernatant containing 500 μg of total protein was combined with Anti-Flag M2 agarose (Sigma) and incubated overnight at 4° C. with gentle shaking. The agarose was pelleted by centrifugation at 2,500 g for 5 minutes and washed with Co-IP buffer 6 times. Captured protein was eluted from the beads using loading buffer and resolved by SDS-PAGE for Western blot analysis.

In a further series the target is T2, Flag-TDP-43 (Homo sapiens, UniProt Q13148).
T2 construct: the exon skipping activity in cells overexpressing full-length TDP-43 was examined; expressed in transfected cells; host or cells: HeLa cells
The series can be described thus: Co-immunoprecipitation with Flag-TDP-43. It counts as binding. As to conditions: HeLa cells, probing for GFP. The method, then:
as §2

The subject of another series is H4 neuroglioma cells. The series can be described thus: Proteasome-induced toxicity, Western blot. It counts as cell-based. On the procedure:
H4 neuroglioma cells were grown in Opti-Mem plus 10% FBS and 1% pen-strep. Cells were plated in 6-well plates and at 90% confluency treated with 10 μM proteasome inhibitor I (PSI) (EMD Chemicals, Inc. San Diego, Calif.) or 100 μM pan-caspase inhibitor (Z-VAD-FMK) (EMD Chemicals, Inc. San Diego, Calif.) separately or in combination. Twenty-four hours after treatment, the cells were harvested for subsequent Western blot analysis in the Co-IP buffer (50 mM Tris-HCl, pH 7.4, 1 M NaCl, 1% Triton-X-100, 5 mM EDTA) plus 1% SDS, PMSF, and protease and phosphatase inhibitors.
Protein concentrations of cells lysates were measured by a standard BCA assay (Pierce, Rockford, Ill.). Then, the samples were heated in Laemmli's buffer, and equal amounts of protein were loaded into 10-well 10% or 4-20% Tris-glycine gels (Novex, San Diego, Calif.). After transfer, blots were blocked with 5% nonfat dry milk in TBST ([…]) for 1 hour, and then incubated with rabbit polyclonal TDP-43 antibody (1:500; ProteinTech Group, Inc, Chicago, Ill.), rabbit polyclonal caspase-3 antibody (1:1000; Cell Signaling, Beverly, Mass.), HSP70 (1:2000; Stressgen, Ann Arbor, Mich.), GADPH (1:5000; Biodesign International, Kennebunkport, Me.), or mouse monoclonal β-actin antibody (1:5000, Sigma, Saint Louis, Miss.) overnight at 4° C. Membranes were washed three times each for 10 minutes with TBST and then incubated with anti-mouse or anti-rabbit IgG conjugated to horseradish peroxidase (1:2000; Jackson ImmunoResearch, West Grove, Pa.) for 1 hour. Membranes were then washed three times each for 10 minutes, and protein expression was visualized by ECL treatment and exposure to film.
For orientation: A western blot detects proteins with antibodies after separation by electrophoresis.

The test system of another series is TDP-43. In words: Proteolytic processing of TDP-43 and caspase-3, Western blot of HeLa and H4 cells. In kind it is cell-based.
The subject of another series is HeLa or H4 cells. The series can be described thus: Immunofluorescence and confocal microscopy of TDP-43 localization. In kind it is cell-based. As to conditions: 1 μM for 3 hours, in contrast to untreated cells.
For series [2], the system named is differentiated M17 neuroblastoma cells. The series can be described thus: Toxicity assay (LDH release, activated caspase-3 staining). It counts as cell-based. The settings on record: for activated caspase-3 staining: confocal microscopy; for LDH levels compared to cells expressing only GFP: medium collected 72 hours after transfection. On the procedure: M17 neuroblastoma cells, seeded at 2.5×10^3 cells per well in 24-well plates, were grown in Neurobasal A/B27 medium containing Glutamax (Invitrogen) and 10 μM retinoic acid (Sigma) to induce differentiation. Seven days later, cells were transfected with 0.2 μg of expression vector for 72 hours. The medium was collected, and a LDH assay (Promega) was used to measure LDH levels as an indicator of toxicity. Then, cells were fixed, and immunofluorescent staining was done using an antibody against activated caspase-3 (1:250; Cell signaling) and the nuclear marker, bisbenzimide (Hoechst 33258).
as §1
In general terms: Release of lactate dehydrogenase indicates damage to the cell membrane.

[3] abbreviates: co-treated with PSI 10 μM and caspase inhibitor 100 μM, 24 hours.

T2 sequence (Q13148 whole entry): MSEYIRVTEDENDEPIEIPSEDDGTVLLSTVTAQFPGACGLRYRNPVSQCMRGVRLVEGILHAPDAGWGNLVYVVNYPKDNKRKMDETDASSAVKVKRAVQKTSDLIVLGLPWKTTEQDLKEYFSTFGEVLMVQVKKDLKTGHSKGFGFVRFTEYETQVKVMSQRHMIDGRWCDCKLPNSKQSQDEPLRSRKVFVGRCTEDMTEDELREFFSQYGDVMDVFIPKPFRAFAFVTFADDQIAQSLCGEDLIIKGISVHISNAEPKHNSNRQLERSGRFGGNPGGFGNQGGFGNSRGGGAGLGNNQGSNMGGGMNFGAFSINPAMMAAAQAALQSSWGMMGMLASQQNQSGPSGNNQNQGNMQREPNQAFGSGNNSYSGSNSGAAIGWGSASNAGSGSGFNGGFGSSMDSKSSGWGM
T1 sequence (P22626 1-341 isoform P22626-2, species assumed): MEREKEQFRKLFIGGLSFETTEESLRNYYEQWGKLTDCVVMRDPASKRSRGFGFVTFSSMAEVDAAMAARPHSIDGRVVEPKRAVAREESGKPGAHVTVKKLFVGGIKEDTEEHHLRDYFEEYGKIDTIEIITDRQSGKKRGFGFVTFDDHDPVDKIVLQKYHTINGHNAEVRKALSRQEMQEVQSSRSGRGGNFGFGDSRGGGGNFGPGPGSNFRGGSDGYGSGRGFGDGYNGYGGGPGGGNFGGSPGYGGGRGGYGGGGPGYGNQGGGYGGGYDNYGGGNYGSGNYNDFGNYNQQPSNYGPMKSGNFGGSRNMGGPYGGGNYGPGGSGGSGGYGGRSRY

In the case of `COC(=O)Nc1nc2ccc(C(=O)c3cccs3)cc2[nH]1` [nocodazole, reference compound], in the series on HEK293 cells (1 μM for 24 hours after 6 hours of transfection), the “effect on inclusions formed by GFP-TDP-25 and GFP-TDP-35” value was “not disrupted”.

Turning to “GFP-TDP76-414: GFP-tagged second C-terminal fragment (76-414) that retains nuclear distribution”, in series [1], the “CFTR exon 9 exclusion (endogenous TDP-43 background)” value is given as “did not promote exon 9 exclusion” and the “exon skipping activity in cells overexpressing Flag-TDP-43” value is listed as “markedly reduced”. Besides, in the series with hnRNPA2, the “binding to hnRNPA2” value is recorded as “did indeed interact”. In addition, the “binding to Flag-TDP-43” value with Flag-TDP-43 is recorded as “only weakly interacted”.

Take `CC[C@H](C)[C@H](NC(=O)OCc1ccccc1)C(=O)N[C@@H](CCC(=O)OC(C)(C)C)C(=O)N[C@@H](C)C(=O)N[C@H](C=O)CC(C)C` [PSI] (Cbz-IE(OtBu)AL-aldehyde): in the series on H4 neuroglioma cells (PSI 10 μM, 24 hours), the HSP70 levels entry is recorded as “increased”; the “cleavage of endogenous cellular TDP-43” value was “cleaved into ˜35 and ˜25 kD fragments”; the “cleaved (active) caspase-3 levels” value was “marked increase”; the “full length TDP-43 band (˜43 kD)” value is “reduction”.

Turning to `COC(=O)C[C@H](NC(=O)[C@H](C)NC(=O)[C@@H](NC(=O)OCc1ccccc1)C(C)C)C(=O)CF` [Z-VAD (OMe)-FMK] (Cbz-Val-Ala-Asp(OMe)-CH2F), the HSP70 levels entry in the series with H4 neuroglioma cells (PSI plus caspase inhibitor) was “persisted”. Also, in the series with H4 neuroglioma cells (setting [3]), the “PSI-induced caspase-3 activity” value is on record as “suppressed” and the “generation of proteolytic TDP-43 fragments” value is “inhibited”. Moreover, the caspase-3 activity result in the series on TDP-43 (PGRN RNAi-treated HeLa cells plus pan-caspase inhibitor) is “suppresses”. For the same compound, the “production of ˜35 and ˜25 kD TDP-43 fragments” value with TDP-43 (PGRN siRNA-treated cells, inhibitor 100 μM for additional 48 hours) is given as “inhibited”.

Regarding `CN[C@@H]1C[C@H]2O[C@@](C)([C@@H]1OC)n1c3ccccc3c3c4c(c5c6ccccc6n2c5c31)C(=O)NC4` [staurosporine], in the series on HeLa or H4 cells, the TDP-43 cellular localization result was “increased cytoplasmic TDP-43 staining”.

Take “GFP-TDP-43: full-length wild-type TDP-43 tagged at the amino terminal with enhanced GFP”: in series [1], the “CFTR exon 9 exclusion (endogenous TDP-43 background)” value is recorded as “marked increase in exon exclusion” and the “exon skipping activity in cells overexpressing Flag-TDP-43” value was “promoted exon 9 exclusion”. Further, in series [2], the “activated caspase-3 staining” value is “did not stain” and the “LDH levels compared to cells expressing only GFP” value was “comparably increased”. Moreover, the “binding to hnRNPA2” value with hnRNPA2 is reported as “interact with hnRNPA2”. Also, the “binding to Flag-TDP-43” value in the series with Flag-TDP-43 is recorded as “bound strongly”. In addition, the cellular distribution result in the series with HEK293 cells is “localized almost exclusively to the nucleus”.

“GFP-TDP-43-caspase-resistant: GFP-tagged TDP-43 with aspartic acid at positions 89 and 219 substituted to glutamic acid”: in series [2], the “activated caspase-3 staining” value was “did not stain” and the “LDH levels compared to cells expressing only GFP” value was “comparably increased”. Also, in the series on HEK293 cells, the cellular distribution entry is given as “localized almost exclusively to the nucleus”.

For “GFP-TDP1-257: GFP-tagged C-terminal deletion product of TDP-43”, in the series with Flag-TDP-43, the “binding to Flag-TDP-43” value was “bound strongly”.

As to “GFP-TDP1-175: GFP-tagged C-terminal deletion mutant lacking the glycine rich region”, the “binding to hnRNPA2” value in the series with hnRNPA2 is reported as “failed to bind”. Further, the “binding to Flag-TDP-43” value with Flag-TDP-43 is “bound strongly”.
